Results: the NIST ThermoML archive (doi:10.1016/j.jct.2015.12.023)
Numbers after ± are expanded uncertainties.

Test: mn = molality of the nth substance listed, in mol/kg
Conditions: 100 kPa, Liquid; for speed of sound: Frequency=3 MHz, Sing-around technique in a fixed-path interferometer; for mass density: Vibrating tube method

CCCC[N+](CCCC)(CCCC)CCCC.[I-] [tetrabutylammonium iodide] + O
speed of sound (288.15 K, m1 = 0.01): 1468.9 ± 1.3 m/s
speed of sound (288.15 K, m1 = 0.02): 1471.3 ± 1.3 m/s
speed of sound (288.15 K, m1 = 0.03): 1473.6 ± 1.3 m/s
speed of sound (288.15 K, m1 = 0.04): 1475.8 ± 1.3 m/s
mass density (288.15 K, m1 = 0.01): 1001.07 ± 2 kg/m3
mass density (288.15 K, m1 = 0.02): 1001.64 ± 2 kg/m3
mass density (288.15 K, m1 = 0.03): 1002.22 ± 2 kg/m3
mass density (288.15 K, m1 = 0.04): 1002.83 ± 2 kg/m3
speed of sound (293.15 K, m1 = 0.01): 1484.9 ± 1.3 m/s
speed of sound (293.15 K, m1 = 0.02): 1487.1 ± 1.3 m/s
speed of sound (293.15 K, m1 = 0.03): 1489.1 ± 1.3 m/s
speed of sound (293.15 K, m1 = 0.04): 1491.3 ± 1.3 m/s
mass density (293.15 K, m1 = 0.01): 1000.16 ± 2 kg/m3
mass density (293.15 K, m1 = 0.02): 1000.72 ± 2 kg/m3
mass density (293.15 K, m1 = 0.03): 1001.29 ± 2 kg/m3
mass density (293.15 K, m1 = 0.04): 1001.88 ± 2 kg/m3
speed of sound (298.15 K, m1 = 0.01): 1498.9 ± 1.3 m/s
speed of sound (298.15 K, m1 = 0.02): 1500.9 ± 1.3 m/s
speed of sound (298.15 K, m1 = 0.03): 1502.8 ± 1.3 m/s
speed of sound (298.15 K, m1 = 0.04): 1504.7 ± 1.3 m/s
mass density (298.15 K, m1 = 0.01): 998.97 ± 2 kg/m3
mass density (298.15 K, m1 = 0.02): 999.53 ± 2 kg/m3
mass density (298.15 K, m1 = 0.03): 1000.09 ± 2 kg/m3
mass density (298.15 K, m1 = 0.04): 1000.67 ± 2 kg/m3
speed of sound (303.15 K, m1 = 0.01): 1511.1 ± 1.3 m/s
speed of sound (303.15 K, m1 = 0.02): 1512.9 ± 1.3 m/s
speed of sound (303.15 K, m1 = 0.03): 1514.5 ± 1.3 m/s
speed of sound (303.15 K, m1 = 0.04): 1516.3 ± 1.3 m/s
mass density (303.15 K, m1 = 0.01): 997.53 ± 2 kg/m3
mass density (303.15 K, m1 = 0.02): 998.07 ± 2 kg/m3
mass density (303.15 K, m1 = 0.03): 998.61 ± 2 kg/m3
mass density (303.15 K, m1 = 0.04): 999.19 ± 2 kg/m3
speed of sound (308.15 K, m1 = 0.01): 1521.2 ± 1.3 m/s
speed of sound (308.15 K, m1 = 0.02): 1522.9 ± 1.3 m/s
speed of sound (308.15 K, m1 = 0.03): 1524.4 ± 1.3 m/s
speed of sound (308.15 K, m1 = 0.04): 1526 ± 1.3 m/s
mass density (308.15 K, m1 = 0.01): 995.95 ± 2 kg/m3
mass density (308.15 K, m1 = 0.02): 996.49 ± 2 kg/m3
mass density (308.15 K, m1 = 0.03): 997.02 ± 2 kg/m3
mass density (308.15 K, m1 = 0.04): 997.58 ± 2 kg/m3
